Assay results reported in patent US12312332B2 (Merck Sharp & Dohme LLC., priority 2019, dated 2025).
pEC50: −log10 of the molar value.

Biological target: T1, human OX2R (Homo sapiens, UniProt O43614)
T1 construct: expressed in transfected cells; host or cells: Chinese hamster ovary (CHO) cells, kept under G418 selection
T1 sequence (O43614 1-444): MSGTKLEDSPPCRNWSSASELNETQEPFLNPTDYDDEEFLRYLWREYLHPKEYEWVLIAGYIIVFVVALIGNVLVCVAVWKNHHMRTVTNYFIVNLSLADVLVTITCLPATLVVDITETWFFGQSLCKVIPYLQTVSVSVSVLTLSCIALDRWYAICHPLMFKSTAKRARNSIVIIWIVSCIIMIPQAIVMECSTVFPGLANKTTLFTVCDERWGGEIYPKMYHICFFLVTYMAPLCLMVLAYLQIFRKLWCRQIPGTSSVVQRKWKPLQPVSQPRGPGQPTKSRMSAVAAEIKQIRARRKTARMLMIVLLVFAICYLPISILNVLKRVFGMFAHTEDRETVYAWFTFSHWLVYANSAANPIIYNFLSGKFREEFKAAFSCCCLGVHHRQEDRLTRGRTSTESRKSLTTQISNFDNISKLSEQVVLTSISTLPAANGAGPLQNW
Assay: IPOne (IP-One) orexin receptor agonist assay in CHO cells expressing human OX2R
Type: cell-based
Settings: for pEC50: CHO cells expressing human OX2R, IP-One detection, 2 hours incubation, four parameter logistic fit, read-out: OX2R Potency, EC50; for % max agonist effect (Emax): human OX2R, percentage of sample raw value/mean max effect (reference compound at 1 uM with 100% activity)

| SMILES | pEC50 | % max agonist effect (Emax) [%] |
| --- | --- | --- |
| CS(=O)(=O)N[C@H]1CCN(c2ccc(=O)n(C(F)F)c2)[C@H]1CO[C@H]1CC[C@@H](c2ccccc2)CC1 [Example 23, N-((2R,3S)-1-(1-(difluoromethyl)-6-oxo-1,6-dihydropyridin-3-yl)-2-((((CIS)-4-phenylcyclohexyl)-oxy)methyl)pyrrolidin-3 - yl)methanesulfonamide] | 5.33 | 81.2 |
| Cn1cccc(N2CC[C@H](NS(C)(=O)=O)[C@@H]2CO[C@H]2CC[C@@H](c3ccccc3)CC2)c1=O [Example 111, N-((2R,3S)-1-(1-methyl-2-oxo-1,2-dihydropyridin-3-yl)-2-((((CIS)-4-phenylcyclohexyl)oxy)methyl)pyrrolidin-3-yl)methanesulfonamide] | 6.97 | 100 |
| CS(=O)(=O)N[C@H]1CCN(c2nccs2)[C@H]1CO[C@H]1CC[C@@H](c2ccccc2)CC1 [Example 27, N-((2R,3S)-2-((((CIS)-4-phenylcyclohexyl)oxy)methyl)-1-(thiazol-2-yl)pyrrolidin-3-yl)methanesulfonamide] | 7.15 | 98.9 |
| CS(=O)(=O)N[C@H]1CCN(c2csc(C3CC3)n2)[C@H]1CO[C@H]1CC[C@@H](c2ccccc2)CC1 [Example 69, N-((2R,3S)-1-(2-cyclopropylthiazol-4-yl)-2-((((CIS)-4-phenylcyclohexyl)oxy)methyl)pyrrolidin-3-yl)methanesulfonamide] | 6.57 | 99.4 |
| CS(=O)(=O)N[C@H]1CCN(c2cncnc2)[C@H]1CO[C@H]1CC[C@@H](c2ccccc2)CC1 [Example 42, N-((2R,3S)-2-((((CIS)-4-phenylcyclohexyl)oxy)methyl)-1-(pyrimidin-5-yl)pyrrolidin-3-yl)methanesulfonamide] | 6.87 | 100.9 |
| CS(=O)(=O)N[C@H]1CCN(c2ncccc2O)[C@H]1CO[C@H]1CC[C@@H](c2ccccc2)CC1 [Example 137, N-((2R,3S)-1-(3-hydroxypyridin-2-yl)-2-((((CIS)-4-phenylcyclohexyl)oxy)methyl)pyrrolidin-3-yl)methanesulfonamide] |  | 100.5 |
| COc1cnc(N2CC[C@H](NS(C)(=O)=O)[C@@H]2CO[C@H]2CC[C@@H](c3ccccc3)CC2)cc1O [Example 119, N-((2R,3S)-1-(4-hydroxy-5-methoxypyridin-2-yl)-2-((((CIS)-4-phenylcyclohexyl)oxy)methyl)pyrrolidin-3-yl)methanesulfonamide] | 7.45 | 101.8 |
| CS(=O)(=O)N[C@H]1CCN(c2ncc(CO)s2)[C@H]1CO[C@H]1CC[C@@H](c2ccccc2)CC1 [Example 102, N-((2R,3S)-1-(5-(hydroxymethyl)thiazol-2-yl)-2-((((CIS)-4-phenylcyclohexyl)oxy)methyl)pyrrolidin-3-yl)methanesulfonamide] | 5.32 | 67.4 |
| COC(=O)c1cnc(N2CC[C@H](NS(C)(=O)=O)[C@@H]2CO[C@H]2CC[C@@H](c3ccccc3)CC2)s1 [Example 104, methyl 2-((2R,3S)-3-(methylsulfonamido)-2-((((CIS)-4-phenylcyclohexyl)oxy)methyl)pyrrolidin-1-yl)thiazole-5-carboxylate] | 5.93 | 100 |

Further lines, results first:

| pEC50 | % max agonist effect (Emax) [%] | SMILES |
| --- | --- | --- |
| 9.24 | 100.7 | CS(=O)(=O)N[C@H]1CCN(c2nccc(O)c2F)[C@H]1CO[C@H]1CC[C@@H](c2ccccc2)CC1 [Example 117, N-((2R,3S)-1-(3-fluoro-4-hydroxypyridin-2-yl)-2-((((CIS)-4-phenylcyclohexyl)oxy)methyl)pyrrolidin-3-yl)methanesulfonamide] |
| 8.77 | 102.4 | CS(=O)(=O)N[C@H]1CCN(c2ncc(Cl)c(O)c2F)[C@H]1CO[C@H]1CC[C@@H](c2ccccc2)CC1 [Example 114, N-((2R,3S)-1-(5-chloro-3-fluoro-4-hydroxypyridin-2-yl)-2-((((CIS)-4-phenylcyclohexyl)oxy)methyl)pyrrolidin-3-yl)methanesulfonamide] |
| 8.00 | 100.9 | CS(=O)(=O)NC1CCCN(c2cccnc2)C1CO[C@H]1CC[C@@H](c2ccccc2)CC1 (stereo partly drawn) [Example 159, N-(2-((((CIS)-4-phenylcyclohexyl)oxy)methyl)-1-(pyridin-3-yl)piperidin-3-yl)methanesulfamide] |
| 7.49 | 99.7 | CS(=O)(=O)N[C@H]1CCCN(c2nccc(O)c2F)[C@H]1CO[C@H]1CC[C@@H](c2ccccc2)CC1 [Example 158, N-((2R,3S)-1-(3-fluoro-4-hydroxypyridin-2-yl)-2-((((CIS)-4-phenylcyclohexyl)oxy)methyl)piperidin-3-yl)methanesulfonamide] |
| 9.60 | 100.2 | C[C@@H]1C[C@H](NS(=O)(=O)N(C)C)[C@H](CO[C@H]2CC[C@@H](c3cccc(F)c3)CC2)N1c1cc(O)ccn1 [Example 157, N′-((2R,3S,5R)-2-((((CIS)-4-(3-fluorophenyl)cyclohexyl)oxy)methyl)-1-(4-hydroxypyridin-2-yl)-5-methylpyrrolidin-3-yl)-N,N-dimethyl-sulfamide] |
